Where two headings read alike, the source gives them in different places. *1 amine or outer side, *2 acyl side, *3 side chain or, on linkers, in order; H or OH if unused. Where a SMILES comes first, the peptide text is derived from it. [ ]: non-standard residue; d: D form. The star is where a group is joined. ξ: configuration not given here. Decanoyl(3ξ-OH) = CCCCCCCC(O)CC(=O)*; X1 = CC=C(N[*:1])C(=O)[*:2]
Key:
Assay type in all cases: cell-based
[1] = test system: Escherichia coli ATCC 35218; assay: Antibacterial activity assay; details: ATCC35218
[2] = test system: Pseudomonas aeruginosa ATCC 27853; assay: Antibacterial activity assay; details: ATCC27853; Gram-negative bacterium Pseudomonas aeruginosa ATCC 27853
[3] = test system: Staphylococcus aureus ATCC 29213; assay: Antibacterial activity assay; details: ATCC29213; Gram-positive bacterium Staphylococcus aureus ATCC 29213
[4] = test system: Bacillus subtilis ATCC 6633; assay: Antibacterial activity assay; details: ATCC6633; Gram-positive bacterium Bacillus subtilis ATCC 6633
HCT116 = assay: Cytotoxic activity assay; details: Homo sapiens, HCT-116, read-out: cytotoxic activity IC50, HCT116
MCF-7 = assay: Cytotoxic activity assay; details: human breast adenocarcinoma cells MCF7
Hela = assay: Cytotoxic activity assay; details: human cervix epithelioid carcinoma Hela
HepG-2 = assay: Cytotoxic activity assay; details: HepG2; human hepatoma cell HepG-2
A549 = assay: Cytotoxic activity assay; details: human lung adenocarcinoma cell A549
K562 = assay: Cytotoxic activity assay; details: human hematological disease cells K562
Cytotoxic activity assay = details: human, normal cell line 293T
[5] = Gram-negative bacterium Escherichia coli ATCC 35218, read-out: MIC

Compound	MIC ([1]; Escherichia coli)	MIC [2]	MIC [3]	MIC [4]	IC50 (HCT116)	IC50 (MCF-7)	IC50 (Hela)	IC50 (HepG-2)	IC50 (A549)	IC50 (K562)	IC50 (Cytotoxic activity assay)	MIC [1, 5]	IC50 (Cytotoxic activity assay; 293T cells (normal cell line))
CC=C(NC(=O)CC(O)CCCCCCC)C(=O)N1CCCC1C(=O)NC(CCC(N)=O)C(=O)NC(C)C(=O)NC(C)C(=O)NC(Cc1ccccc1)C(=O)O (stereo not shown) [Compound 8, Burriogladiodin H] ({Decanoyl(3ξ-OH)}-[X1]PQAAF-OH; configuration not given here)	> 100 µM	> 100 µM	> 100 µM	> 100 µM	> 20 µM	> 20 µM	> 20 µM	> 20 µM	> 20 µM	> 20 µM	> 40 µM		
CC=C(NC(=O)CC(O)CCCCCCC)C(=O)N1CCCC1C(=O)NC(CCC(N)=O)C(=O)NC(C)C(=O)NC(C(=O)NC(Cc1ccccc1)C(=O)N1CCCC1C(=O)O)C(C)C (stereo not shown) [Compound 1, Burriogladiodin A] ({Decanoyl(3ξ-OH)}-[X1]PQAVFP-OH; configuration not given here)	> 100 µM	> 100 µM	> 100 µM	> 100 µM	> 20 µM	> 20 µM	> 20 µM	> 20 µM	> 20 µM	> 20 µM	29.4 ± 0.85 µM		
CC=C(NC(=O)CCCCCCC)C(=O)NC(=CC)C(=O)NC(Cc1ccc(O)cc1)C(=O)O (stereo not shown) [Compound 10, Haereogladiodin B]		> 100 µM	> 100 µM	> 100 µM	> 20 µM	> 20 µM	> 20 µM	> 20 µM	> 20 µM	> 20 µM	33.9 ± 0.75 µM	> 100 µM	
CC=C(NC(=O)CC(O)CCCCCCC)C(=O)N1CCCC1C(=O)NC(CCC(N)=O)C(=O)NC(C)C(=O)NC(C(=O)NC(Cc1ccccc1)C(=O)O)C(C)C (stereo not shown) [Compound 5, Burriogladiodin E] ({Decanoyl(3ξ-OH)}-[X1]PQAVF-OH; configuration not given here)	> 100 µM	> 100 µM	> 100 µM	> 100 µM	> 20 µM	> 20 µM	> 20 µM	> 20 µM	> 20 µM	> 20 µM	24.9 ± 0.96 µM		
COc1cccc2c1C(=O)c1c(O)c3c(c(O)c1C2=O)C[C@@](O)(C(=O)CO)C[C@@H]3O[C@H]1C[C@H](N)[C@H](O)[C@H](C)O1 [adriamycin, reference compound]					0.73 ± 0.05 µM	0.86 ± 0.07 µM	0.61 ± 0.07 µM	0.68 ± 0.001 µM	0.61 ± 0.03 µM	0.57 ± 0.02 µM			1.47 ± 0.15 µM
CC=C(NC(=O)CC(O)CCCCCCC)C(=O)N1CCCC1C(=O)NC(CCC(N)=O)C(=O)NC(C)C(=O)NC(C(=O)NC(Cc1ccccc1)C(=O)N1CCCC1C(=O)NC(C(=O)O)C(C)O)C(C)C (stereo not shown) [Compound 2, Burriogladiodin B] ({Decanoyl(3ξ-OH)}-[X1]PQAVFPT-OH; configuration not given here)	> 100 µM	> 100 µM	> 100 µM	> 100 µM	> 20 µM	> 20 µM	> 20 µM	> 20 µM	> 20 µM	> 20 µM	> 40 µM		
CC=C(NC(=O)CCCCCCC)C(=O)NC(=CC)C(=O)NC(Cc1ccc(O)cc1)C(=O)NC(CC(C)C)C(=O)Nc1ccc(C(=O)NC(C(=O)O)C(C)O)cc1 (stereo not shown) [Compound 9, Haereogladiodin A]		> 100 µM	> 100 µM	> 100 µM	> 20 µM	> 20 µM	> 20 µM	> 20 µM	> 20 µM	> 20 µM	36.1 ± 0.81 µM	> 100 µM	
